Laboratory results as given in US20250376484A1, “PRMT5 INHIBITORS AND USES THEREOF” (Gilead Sciences, Inc., priority 2024, published 2025).

Legend:
BCRP = target: T1, BCRP (Homo sapiens, UniProt Q9UNQ0); test: MDR1/BCRP assay: efflux ratio in cPgp-KO-BCRP-KI cells; assay type: in vitro ADME; conditions: dog, efflux ratio Papp (B-to-A)/Papp (A-to-B), 2-hour time point, read-out: cPgp-KO-BCRP-KI (ER)
T1 construct: host or cells: MDCK cells with canine Pgp knocked out and BCRP knocked in (cPgp-KO-BCRP-KI)
T1 sequence (Q9UNQ0 1-655): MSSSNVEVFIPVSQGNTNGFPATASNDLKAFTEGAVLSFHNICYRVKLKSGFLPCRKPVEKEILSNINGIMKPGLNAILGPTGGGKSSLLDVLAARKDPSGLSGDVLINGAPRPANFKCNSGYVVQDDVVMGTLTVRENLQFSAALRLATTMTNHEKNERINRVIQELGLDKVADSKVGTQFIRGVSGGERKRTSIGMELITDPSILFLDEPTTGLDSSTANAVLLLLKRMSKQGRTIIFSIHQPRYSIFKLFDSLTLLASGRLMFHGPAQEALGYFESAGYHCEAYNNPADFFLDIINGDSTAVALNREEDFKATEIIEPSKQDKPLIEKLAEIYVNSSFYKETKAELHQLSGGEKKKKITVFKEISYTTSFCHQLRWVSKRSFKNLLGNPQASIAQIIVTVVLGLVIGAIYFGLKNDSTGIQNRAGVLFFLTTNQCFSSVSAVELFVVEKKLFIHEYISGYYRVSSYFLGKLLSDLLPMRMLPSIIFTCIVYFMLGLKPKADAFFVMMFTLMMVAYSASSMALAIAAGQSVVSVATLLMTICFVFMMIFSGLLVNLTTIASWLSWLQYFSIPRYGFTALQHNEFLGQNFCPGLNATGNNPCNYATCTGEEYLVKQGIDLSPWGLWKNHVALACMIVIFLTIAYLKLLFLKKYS
Description: (§1) cPgp-KO-MDCK-WT, cPgp-KO-MDR1-KI, and cPgp-KO—BCRP—KI cells (all from Sigma) were cultured in Dulbecco's Modification of Eagle's Medium (DMEM) with 4.5 g/L glucose, sodium pyruvate, and GlutaMAX (Gibco) supplemented with 1% Pen/Strep and 10% fetal bovine serum. The cells were maintained in an incubator at 37° C., 90% humidity, and 5% CO2 until reaching confluence over 5 days in 96-well transwell plates. Experiments were conducted using an HBSS donor buffer (Invitrogen) containing 10 mM HEPES and 15 mM glucose, adjusted to pH 7.4. The receiver well contained HBSS buffer supplemented with 1% BSA, 10 mM HEPES, and 15 mM glucose, and the pH was adjusted to 7.4. TEER values were measured to assess membrane integrity after an initial equilibration with BSA-free transport buffer for 15 minutes. The experiment was started by adding dosing solutions containing test compounds at 1 μM. Cells were dosed on the apical (A) side or basolateral (B) side at 100 μl and 200 μl, respectively, to determine forward (A to B) and reverse (B to A) permeability. At the 2-hour time point, 50 μl samples were collected from the receiver compartment. Each compound was tested in 2 separate replicate wells for each condition. All samples were immediately collected into plates, and 50 μL of acetonitrile was added. Subsequently, 350 μl of 30:70 methanol: acetonitrile containing internal standard was added to precipitate proteins and stabilize the test compounds. To test for non-specific binding and compound instability, the total amount of the drug was quantified at the end of the experiment and compared to the material present in the original dosing solution as a percentage of the recovery. All samples were analyzed by LC-MS/MS using electrospray ionization.
(§2) The apparent permeability, Papp, and % recovery were calculated as follows: […]

[1] = MDR1/BCRP assay: permeability in cPgp-KO-MDCK-WT cells; assay type: in vitro ADME; conditions: dog, test compounds at 1 μM, 2-hour time point, pH 7.4
Description: as §1, §2

[2] = Cell viability assay (CellTitre-Glo), HCT116 WT; assay type: cell-based; conditions: human; HCT116 WT cells, 7 days of treatment, CTG luminescence
Description: (§3) Control compounds were analyzed in parallel each time for quality control.
(§4) In Brief, on Day-1, a serial dilution of stock compounds in DMSO was performed using BioMek liquid handlers and dispensed using Echo acoustic dispenser into 384 well plates. Both tool compounds and sample compounds were spotted in the same plate for a dose response of PRMT5 inhibitors. Compound plates were stored as frozen until the cells were ready for seeding.
(§5) On Day 0, 100 HCT WT or HCT116 MTAP-deleted cells were seeded in compound-containing 384 well plates (50 μl per well) in RPMI 1640 media supplemented with 10% heat inactivated fetal bovine serum, Glutamax and penicillin streptomycin using EL460 liquid dispenser 5 μl cassette (BioTek, part no. 7170011). After equilibrating the plate in room temperature, the cells were incubated for 7 days inside the sealed incubator set at 37° C. with […] and 5% CO2.
(§6) On Day 7, the viability of cells was measured using a CTG assay kit (CellTitre-Glo; Promega cat no. G7573). Shortly, 40 μl per well of luminescent cell viability assay reagent were dispensed using EL460 liquid dispenser 5 μl cassette. CTG luminescence signal was measured using an EnVision plate reader (PerkinElmer) in accordance with manufacturer's instruction. The CC50 values for each compound after 7 days of treatment were calculated using 4 parameter non-linear logistical curve fit.

[3] = system: HCT116 MTAP-deleted cell lines; test: Cell viability assay (CellTitre-Glo), HCT116 MTAP-deleted; assay type: cell-based; conditions: for CC50: Homo sapiens, HCT-116, 168 h, HCT116 MTAP-deleted cells, 7 days of treatment, CTG luminescence, read-out: MTAP^del HCT116 CC50; for Selectivity: WT HCT116 CC50 versus MTAP^del HCT116 CC50
Description: as §3, §4, §5, §6

MDR1 = target: T2, MDR1 (Homo sapiens, UniProt P08183); test: MDR1/BCRP assay: efflux ratio in cPgp-KO-MDR1-KI cells; assay type: in vitro ADME; conditions: dog, MDCK-MDR1, efflux ratio Papp (B-to-A)/Papp (A-to-B), 2-hour time point, read-out: cPgp-KO-MDR1-KI (ER)
T2 construct: host or cells: MDCK cells with canine Pgp knocked out and MDR1 knocked in (cPgp-KO-MDR1-KI)
Description: as §1, §2

T2 sequence (P08183 whole entry): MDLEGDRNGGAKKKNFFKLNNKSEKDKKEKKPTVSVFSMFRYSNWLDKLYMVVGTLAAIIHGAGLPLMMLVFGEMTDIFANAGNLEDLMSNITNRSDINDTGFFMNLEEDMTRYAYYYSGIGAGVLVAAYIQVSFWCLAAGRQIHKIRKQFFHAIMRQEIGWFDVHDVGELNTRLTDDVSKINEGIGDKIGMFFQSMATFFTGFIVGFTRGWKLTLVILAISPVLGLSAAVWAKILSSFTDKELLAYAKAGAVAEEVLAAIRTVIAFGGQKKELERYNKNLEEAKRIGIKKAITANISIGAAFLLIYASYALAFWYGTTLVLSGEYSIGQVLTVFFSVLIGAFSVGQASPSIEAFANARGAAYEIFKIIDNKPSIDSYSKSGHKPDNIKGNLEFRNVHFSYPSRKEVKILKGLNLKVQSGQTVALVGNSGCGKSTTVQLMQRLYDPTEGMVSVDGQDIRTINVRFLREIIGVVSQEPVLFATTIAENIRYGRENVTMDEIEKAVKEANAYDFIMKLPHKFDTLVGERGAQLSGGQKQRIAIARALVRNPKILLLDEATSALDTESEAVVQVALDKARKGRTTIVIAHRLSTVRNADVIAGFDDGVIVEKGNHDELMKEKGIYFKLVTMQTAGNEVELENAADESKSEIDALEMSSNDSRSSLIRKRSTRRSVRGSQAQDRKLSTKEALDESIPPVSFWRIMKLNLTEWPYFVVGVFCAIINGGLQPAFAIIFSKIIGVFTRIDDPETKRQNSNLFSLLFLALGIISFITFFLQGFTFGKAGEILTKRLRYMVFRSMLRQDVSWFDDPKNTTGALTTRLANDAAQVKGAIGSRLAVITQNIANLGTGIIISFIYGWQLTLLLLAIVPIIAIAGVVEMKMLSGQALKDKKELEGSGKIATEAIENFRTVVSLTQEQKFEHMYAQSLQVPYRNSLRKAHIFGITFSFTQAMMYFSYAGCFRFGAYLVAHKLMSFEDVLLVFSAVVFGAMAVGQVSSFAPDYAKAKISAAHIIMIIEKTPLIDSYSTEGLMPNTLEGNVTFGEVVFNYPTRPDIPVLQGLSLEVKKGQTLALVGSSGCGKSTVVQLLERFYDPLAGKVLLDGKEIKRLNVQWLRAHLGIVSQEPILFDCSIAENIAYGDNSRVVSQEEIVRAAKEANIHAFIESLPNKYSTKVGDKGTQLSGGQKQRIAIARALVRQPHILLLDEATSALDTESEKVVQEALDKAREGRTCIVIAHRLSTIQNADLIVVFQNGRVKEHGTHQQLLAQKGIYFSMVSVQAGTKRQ

efflux ratio at 2 h, 1 μM (BCRP) | Papp A→B at 2 h, 1 µM [1] [×10⁻⁶ cm/s] | efflux ratio at 2 h, 1 μM (MDR1) | SMILES | CC50 at 7 days [2] [nM] | CC50 [3] [nM] | Selectivity [3]
1.1 | 17.7 | 1 | C[C@@H]1CN(C(=O)C(=O)Nc2cnc(N)c3c2cnn3C)[C@H]2c3ccc(C(F)(F)F)cc3C[C@H]2O1 [Example Ca-10, N-(7-amino-1-methyl-1H-pyrazolo[3,4-c]pyridin-4-yl)-2-((2R,4aS,9aR)-2-methyl-7-(trifluoromethyl)-2,3,9,9a-tetrahydroindeno[2,1-b][1,4]oxazin-4(4aH)-yl)-2-oxoacetamide] | 2720 | 28 | 96
1.3 | 10.7 | 1.4 | Cn1ncc2c(NC(=O)C(=O)N3CC[C@H]4C[C@@H]3c3c(F)cc(C(F)(F)F)cc3O4)cnc(N)c21 [Example Ca-11, N-(7-amino-1-methyl-1H-pyrazolo[3,4-c]pyridin-4-yl)-2-((2S,6R)-7-fluoro-9-(trifluoromethyl)-3,4-dihydro-2H-2,6-methanobenzo[b][1,5]oxazocin-5(6H)-yl)-2-oxoacetamide] | 2070 | 18 | 115
0.44 | 11.6 | 0.99 | Cn1ncc2c(NC(=O)C(=O)N3CC4(CC4)C[C@@H]4Oc5cc(C(F)(F)F)ccc5[C@@H]43)cnc(N)c21 [Example Ca-5, N-(7-amino-1-methyl-1H-pyrazolo[3,4-c]pyridin-4-yl)-2-oxo-2-((4aS,9bS)-7-(trifluoromethyl)-4a,9b-dihydro-2H-spiro[benzofuro[3,2-b]pyridine-3,1′-cyclopropan]-1(4H)-yl)acetamide] | 589 | 8 | 73
